Results from ChEMBL document CHEMBL5727462, “Benzimidazole derivates useful as inhibitors of mammalian histone deacetylase activity” (2019).

Biological target: T1, Protein deacetylase HDAC6 (Homo sapiens, UniProt Q9UBN7)
T1 sequence (Q9UBN7 whole entry): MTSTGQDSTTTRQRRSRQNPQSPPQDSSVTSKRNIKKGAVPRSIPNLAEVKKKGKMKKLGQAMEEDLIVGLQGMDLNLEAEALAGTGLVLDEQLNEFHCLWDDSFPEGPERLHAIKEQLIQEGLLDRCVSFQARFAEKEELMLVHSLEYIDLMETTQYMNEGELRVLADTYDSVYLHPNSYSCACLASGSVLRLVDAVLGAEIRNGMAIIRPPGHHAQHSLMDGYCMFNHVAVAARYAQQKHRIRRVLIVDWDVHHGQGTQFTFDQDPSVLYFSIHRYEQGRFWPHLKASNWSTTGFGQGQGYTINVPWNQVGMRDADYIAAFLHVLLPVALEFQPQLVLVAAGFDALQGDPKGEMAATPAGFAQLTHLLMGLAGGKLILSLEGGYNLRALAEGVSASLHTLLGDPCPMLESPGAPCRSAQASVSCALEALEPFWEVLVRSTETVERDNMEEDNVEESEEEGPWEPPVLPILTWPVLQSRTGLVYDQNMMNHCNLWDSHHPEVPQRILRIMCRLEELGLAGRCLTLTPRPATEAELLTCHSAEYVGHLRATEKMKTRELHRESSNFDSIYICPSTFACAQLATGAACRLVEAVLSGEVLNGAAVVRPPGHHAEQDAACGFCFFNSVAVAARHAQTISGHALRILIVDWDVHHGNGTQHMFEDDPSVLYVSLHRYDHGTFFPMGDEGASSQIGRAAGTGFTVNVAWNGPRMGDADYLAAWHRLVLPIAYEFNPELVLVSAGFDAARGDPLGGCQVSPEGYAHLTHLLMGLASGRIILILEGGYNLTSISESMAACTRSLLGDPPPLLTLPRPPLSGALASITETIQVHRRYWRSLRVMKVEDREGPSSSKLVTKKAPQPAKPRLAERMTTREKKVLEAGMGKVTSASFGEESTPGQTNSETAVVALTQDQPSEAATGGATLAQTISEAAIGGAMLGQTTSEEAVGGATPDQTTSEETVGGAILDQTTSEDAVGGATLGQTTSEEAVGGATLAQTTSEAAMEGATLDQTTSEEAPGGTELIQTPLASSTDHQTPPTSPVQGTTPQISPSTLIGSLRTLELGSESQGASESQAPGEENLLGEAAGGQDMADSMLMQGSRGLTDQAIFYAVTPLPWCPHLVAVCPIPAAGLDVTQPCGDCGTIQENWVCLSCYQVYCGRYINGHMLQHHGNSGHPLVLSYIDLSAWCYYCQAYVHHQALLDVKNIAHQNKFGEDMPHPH
Experiment: In vitro enzymatic HDACs assays: All Examples were tested in HDAC1, 2, 3, 6 and 8 in vitro enzymatic assays. The assay principle is well known (Hauser et al. 2009, Bradner et al. 2010) and all necessary reagents like enzymes, substrates, developer and reference compounds are commercially available (see e.g. BPS Biosciences http://www.bpsbioscience.com/). A series of dilutions of the compounds were prepared with a top concentration of 200 μM (2 μM for HDAC6). The enzymatic reactions were conducted in a mixture containing assay buffer, bovine serum albumin, HDAC substrate, and a test compound. After enzymatic reaction, developer was added and after an additional incubation time, fluorescence intensity was measured at an excitation wavelength of 360 nm and an emission wavelength of 460 nm. A selection of the Examples were tested in a full HDAC panel containing HDAC1, 2, 3, 4, 5, 6, 7, 8, 9, 10 and 11 in vitro enzymatic assays. The tests were performed as above except that a series of dilutions of the compounds were prepared with a top concentration of 10 μM for all HDACs.

Structure (SMILES): O=C(NO)c1ccc2nc(-c3ccc(-c4ccccc4)c(F)c3)[nH]c2c1
- IC50: 19 nM
